Laboratory results taken from paper PMC9505425, “Targeting of the Mitochondrial TET1 Protein by Pyrrolo[3,2-b]pyrrole Chelators” (International Journal of Molecular Sciences, 2022).
Where “and” joins values, the source holds several entries; their conditions need not be identical. Identical values can stand only once.

Assays:
Type in all cases: cell-based, human
[1] = MTT cytotoxicity assay, HF-P4; conditions: human, HF-P4 normal human dermal fibroblasts, repeats, read-out: Cell viability %
In short: (§1)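 Cells seeded at 1.0 × 10^5 per well, grown 24 h, then exposed 48 h to compounds at 0.1–20 μM (DMSO ≤1%). MTT added for 2 h, formazan dissolved in DMSO, absorbance read at 570 nm. IC50 calculated relative to untreated cells (100%).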

HF-P4 cells = test: MTT cytotoxicity assay, HF-P4; conditions: 48 h; for Cell viability %: repeats
In short: as §1

U-118 MG cells = test: MTT cytotoxicity assay, U-118 MG; conditions: 48 h
In short: (§2)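 Cells seeded at 1.0 × 10^5/well, grown 24 h, then exposed 48 h to compounds at 0.1–20 μM (≤1% DMSO); U118-MG in DMEM, H1299 in RPMI 1640, both with 10% FBS, 37 °C. MTT 2 h, formazan in DMSO read at 570 nm; IC50 relative to untreated cells (100%).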

H-1299 cells = test: MTT cytotoxicity assay, H-1299; conditions: Homo sapiens
In short: as §2

With `Cc1ccc(-n2c(-c3ccc(C(=O)N/N=C/c4cc(F)ccc4O)cc3)cc3c2cc(-c2ccc(C(=O)N/N=C/c4cc(F)ccc4O)cc2)n3-c2ccc(C)cc2)cc1` [Compound 3] the viability at 48 h, 0.1 µM ([1]; HF-P4, 100 nM) was 95.8%, the viability at 48 h, 0.5 µM ([1]; HF-P4, 500 nM) was 99.9% and the viability at 48 h, 0.75 µM ([1]; HF-P4, 750 nM) was 107%. The viability at 48 h, 1 µM ([1]; HF-P4, 1 uM) was 100%, the viability at 48 h, 2.5 µM ([1]; HF-P4, 2.5 uM) was 87.1% and the viability at 48 h, 5 µM ([1]; HF-P4, 5 uM) was 85.8%. It also gave a viability at 48 h, 7.5 µM ([1]; HF-P4, 7.5 uM) of 78.7%, a viability at 48 h, 10 µM ([1]; HF-P4, 10 uM) of 82.6% and a viability at 48 h, 15 µM ([1]; HF-P4, 15 uM) of 65.6%. The viability at 48 h, 20 µM ([1]; HF-P4, 20 uM) was 59%, the Cell viability % (HF-P4 cells; HF-P4, 100 nM, 0.1 µM) was 96.12% and 98.08% and the Cell viability % (HF-P4 cells; HF-P4, 500 nM, 0.5 µM) was 100.1756% and 103.312%. For the same compound, the Cell viability % (HF-P4 cells; HF-P4, 750 nM, 0.75 µM) was 98.1566% and 91.216%, the Cell viability % (HF-P4 cells; HF-P4, 1 uM, 1 µM) was 97.13% and 98.88% and the Cell viability % (HF-P4 cells; HF-P4, 2.5 uM, 2.5 µM) was 92.78% and 93.78%. The Cell viability % (HF-P4 cells; HF-P4, 5 uM, 5 µM) was 90.27% and 73.392%, the Cell viability % (HF-P4 cells; HF-P4, 7.5 uM, 7.5 µM) was 83.18% and 77.088% and the Cell viability % (HF-P4 cells; HF-P4, 10 uM, 10 µM) was 74.37% and 72.544%. The Cell viability % (HF-P4 cells; HF-P4, 15 uM, 15 µM) was 66.4% and 65.2%, the Cell viability % (HF-P4 cells; HF-P4, 20 uM, 20 µM) was 62.78% and 65.696% and the IC50 (HF-P4 cells; Homo sapiens, MTT) was > 20 µM. The viability at 0.1 µM (U-118 MG cells; Homo sapiens, U-118-MG, U-118 MG, 100 nM, repeats, read-out: Cell viability %) was 90.9%, the viability at 0.75 µM (U-118 MG cells; Homo sapiens, U-118-MG, U-118 MG, 750 nM, repeats, read-out: Cell viability %) was 70.2% and the viability at 1 µM (U-118 MG cells; Homo sapiens, U-118-MG, U-118 MG, 1 uM, repeats, read-out: Cell viability %) was 75.9%. The viability at 2.5 µM (U-118 MG cells; Homo sapiens, U-118-MG, U-118 MG, 2.5 uM, repeats, read-out: Cell viability %) was 64.7%, the viability at 5 µM (U-118 MG cells; Homo sapiens, U-118-MG, U-118 MG, 5 uM, repeats, read-out: Cell viability %) was 57.1% and the viability at 7.5 µM (U-118 MG cells; Homo sapiens, U-118-MG, U-118 MG, 7.5 uM, repeats, read-out: Cell viability %) was 48.3%. It also gave a viability at 10 µM (U-118 MG cells; Homo sapiens, U-118-MG, U-118 MG, 10 uM, repeats, read-out: Cell viability %) of 45.6%, a viability at 15 µM (U-118 MG cells; Homo sapiens, U-118-MG, U-118 MG, 15 uM, repeats, read-out: Cell viability %) of 42.6% and a viability at 20 µM (U-118 MG cells; Homo sapiens, U-118-MG, U-118 MG, 20 uM, repeats, read-out: Cell viability %) of 35.1%. The IC50 (U-118 MG cells; Homo sapiens, U-118-MG, MTT) was 19.5 µM, the Cell viability % (U-118 MG cells; U-118 MG, 100 nM, repeats, 0.1 µM) was 99.65% and 109.711% and the Cell viability % (U-118 MG cells; U-118 MG, 500 nM, repeats, 0.5 µM) was 87.97% and 59.47% and 56.29%. The Cell viability % (U-118 MG cells; U-118 MG, 750 nM, repeats, 0.75 µM) was 72.44% and 70.85%, the Cell viability % (U-118 MG cells; U-118 MG, 1 uM, repeats) was 71.04% and 66.44% and the Cell viability % (U-118 MG cells; U-118 MG, 2.5 uM, repeats) was 61.47% and 71.58%. For the same compound, the Cell viability % (U-118 MG cells; U-118 MG, 5 uM, repeats) was 68.44% and 68.48%, the Cell viability % (U-118 MG cells; U-118 MG, 7.5 uM, repeats) was 52.95% and 55.16% and the Cell viability % (U-118 MG cells; U-118 MG, 10 uM, repeats) was 53.29% and 53%. For the same compound, the Cell viability % (U-118 MG cells; U-118 MG, 15 uM, repeats) was 46.07% and 47.09%, the Cell viability % (U-118 MG cells; U-118 MG, 20 uM, repeats) was 30.47% and 32.82% and the viability at 2.5 µM (H-1299 cells; NCI-H1299, 48 h, H-1299, 2.5 uM, repeats, read-out: Cell viability %) was 124%. It also gave a viability at 5 µM (H-1299 cells; NCI-H1299, 48 h, H-1299, 5 uM, repeats, read-out: Cell viability %) of 85.7%, a viability at 10 µM (H-1299 cells; NCI-H1299, 48 h, H-1299, 10 uM, repeats, read-out: Cell viability %) of 47.9% and a viability at 15 µM (H-1299 cells; NCI-H1299, 48 h, H-1299, 15 uM, repeats, read-out: Cell viability %) of 58.9%. The viability at 20 µM (H-1299 cells; NCI-H1299, 48 h, H-1299, 20 uM, repeats, read-out: Cell viability %) was 31.4% and the IC50 (H-1299 cells; NCI-H1299, MTT, 48 h) was 10.6 µM.
